Measured values taken from patent publication US20090209046A1, “Neutral Pharmaceuticals” (priority 2006, published 2009).
≈ marks a conversion by molar mass, not a printed value. Like-named read-outs stand apart in the source and are kept apart here. Marks after values point to notes of the source that are not given here.

Columns and labels:
[1] = Measurement of P: partition coefficient in 1-octanol/water system; conditions: 25° C., observed, for aspirin and caffeine the parent drug itself
[2] = Measurement of solubility in water, octanol saturated water and water saturated octanol; conditions: for logSR (Swo/Sow): log solubility ratio; for logSR (Swo/Sow) / Sow / Swo / Sw: 25° C.; for Sow: solubility in octanol saturated water; for Swo: solubility in water saturated octanol; for Sw: solubility in water
Procedure: Solubilities were determined at 25° C. in water (Sw), octanol saturated water (Sow), water saturated octanol (Swo). An excess of the sample was added to 15 ml of each solvent and stirred vigorously at 25° C. for 8 hours. […] The supernatant was collected. The supernatant samples after appropriate dilutions with respective solvent were analyzed by UV spec using a standard plot of solute in the same medium. Solubility of copper acetate in water saturated octanol was determined by extracting 200 ml saturated wo solution into 20 ml ow.

[3] = water, cited from earlier work
[4] = Stability of mixed-ligand Cu(II) complexes in solution (ESI-MS, 1H DOSY NMR); type: physicochemical; conditions: 1H DOSY NMR in D2O, 298K
Procedure: NMR tubes with a 5-mm internal diameter were used. […] Diffusion coefficients were measured by incrementing the amplitude of the field gradient pulse over 32 steps (0.5-30 G/cm). The bipolar gradient duration and the diffusion time were optimized to 2.4 ms and 14.9 ms, respectively. The intensities were fitted to an exponential decay using the SimFit program within the Topspin software to provide estimates of the diffusion constant.
The formation of Cu(ASP)2(AL)2(H2O) is also observed by us from the ESI-MS of ASP-7 and ASP-8 in aqueous solution. Indeed, for mononuclear Cu(II) species, the coordination of anionic API and neutral AL to copper in solution has been confirmed by the mass spectra.
Since structures of binuclear Cu(II) complexes are analogous, as a model, ASP-3 was investigated by using NMR diffusion measurement for stability studies. Diffusion-Ordered Spectroscopy […]) methods^11 are based on pulsed-field gradient spin-echo NMR experiments. […] The small peak on the left at 8.160 ppm is assigned to one proton of 3-Br-Py by comparing the ^1H NMR spectra of ASP-3 and ASP-3/3-Br-Py mixture. Peaks in the range of 7-8 ppm are due to the peak overstocking of aspirin and 3-Br-Py aromatic protons. […] The diffusion coefficient for ASP-3 was 3.819×10^−9 m^2/s. […]

| Compound | logP of complex [1] | logSR (Swo/Sow) [2] | Sow [2] | Swo [2] | Sw [2] | Sw ([3]; from MSDS) | Sw ([3]; from reference Koch et al. J. Pharm. Sci. 1978) | logP (physchem) | solubility thermodynamic at 8 h ([2]; octanol saturated water, 25 °C, water, thermodynamic from solid) [µg/mL] | diffusion coefficient [4] |
| --- | --- | --- | --- | --- | --- | --- | --- | --- | --- | --- |
| C1CCOC1.C1CCOC1.O=C(Oc1ccccc1C(=O)[O-])c1ccccc1O.O=C(Oc1ccccc1C(=O)[O-])c1ccccc1O.O=C(Oc1ccccc1C(=O)[O-])c1ccccc1O.O=C(Oc1ccccc1C(=O)[O-])c1ccccc1O.[Cu+2].[Cu+2].c1ccc(-c2ccncc2)cc1.c1ccc(-c2ccncc2)cc1 [SAS-5, Cu2(SAS)4(4-Phenyl-Pyridine)2(THF)2] | 1.231(53) | 1.593 | 0.0315(2) mg/ml | 1.236(18) mg/ml | 0.0303(3) mg/ml | – | – | – | – | – |
| CC(=O)Oc1ccccc1C(=O)[O-].CC(=O)Oc1ccccc1C(=O)[O-].CC(=O)Oc1ccccc1C(=O)[O-].CC(=O)Oc1ccccc1C(=O)[O-].[Cu+2].[Cu+2].c1ccc2ncccc2c1.c1ccc2ncccc2c1 [ASP-4, Cu2(ASP)4(Quinoline)2] | 0.4772(140) | 0.2133 | 3.342(3) mg/ml | 5.460(23) mg/ml | 2.729(1) mg/ml | – | – | – | – | – |
| CCc1ccncc1.CCc1ccncc1.O=C(Oc1ccccc1C(=O)[O-])c1ccccc1O.O=C(Oc1ccccc1C(=O)[O-])c1ccccc1O.[Cu+2] [SAS-9, Cu(SAS)2(4-Et-Pyridine)2] | – | 1.115 | 0.1104(8) mg/ml | 1.438(9) mg/ml | 0.1143(2) mg/ml | – | – | – | – | – |
| Cc1ccncc1.Cc1ccncc1.O=C(Oc1ccccc1C(=O)[O-])c1ccccc1O.O=C(Oc1ccccc1C(=O)[O-])c1ccccc1O.[Cu+2] [SAS-8, Cu(SAS)2(4-Me-Pyridine)2] | – | 0.9488 | 0.2174(10) mg/ml | 1.932(23) mg/ml | 0.2301(18) mg/ml | – | – | – | – | – |
| CC(=O)Oc1ccccc1C(=O)[O-].CC(=O)Oc1ccccc1C(=O)[O-].NC(=O)c1cccnc1.NC(=O)c1cccnc1.[Cu+2] [ASP-8, Cu(ASP)2(Nicotinamide)2] | −0.5257(136) | −0.6490 | 3.361(29) mg/ml | 0.7541(97) mg/ml | 4.417(50) mg/ml | – | – | – | – | – |
| Cu(SAS)2(Isonicotinamide)2(AcCN)2/3 [SAS-7] | 0.03802(967) | 0.4241 | 0.2890(10) mg/ml | 0.8344(165) mg/ml | 0.3143(9) mg/ml | – | – | – | – | – |
| O.O.O=C(Oc1ccccc1C(=O)[O-])c1ccccc1O.O=C(Oc1ccccc1C(=O)[O-])c1ccccc1O.O=C(Oc1ccccc1C(=O)[O-])c1ccccc1O.O=C(Oc1ccccc1C(=O)[O-])c1ccccc1O.[Cu+2].[Cu+2] [SAS-1, Cu2(SAS)4(H2O)2] | 0.06927(1394) | 1.033 | 0.2962(10) mg/ml | 3.200(5) mg/ml | 0.2791(6) mg/ml | – | – | – | – | – |
| COc1cccc(OC)c1C(=O)[O-].COc1cccc(OC)c1C(=O)[O-].COc1cccc(OC)c1C(=O)[O-].COc1cccc(OC)c1C(=O)[O-].O.O.[Cu+2].[Cu+2] [MC-3, Cu2(DMB)4(H2O)2] | −1.442(27) | −0.9168 | 31.97(19) mg/ml | 3.872(125) mg/ml | 33.61(21) mg/ml | – | – | – | – | – |
| CC(=O)Oc1ccccc1C(=O)[O-].CC(=O)Oc1ccccc1C(=O)[O-].CC(=O)Oc1ccccc1C(=O)[O-].CC(=O)Oc1ccccc1C(=O)[O-].[Cu+2].[Cu+2] [ASP-1, Cu2(ASP)4] | −0.2371(267) | −0.4847 | 2.981(3) mg/ml | 0.9767(36) mg/ml | 3.414(25) mg/ml | – | – | – | – | – |
| O=C(Oc1ccccc1C(=O)[O-])c1ccccc1O.O=C(Oc1ccccc1C(=O)[O-])c1ccccc1O.O=C(Oc1ccccc1C(=O)[O-])c1ccccc1O.O=C(Oc1ccccc1C(=O)[O-])c1ccccc1O.[Cu+2].[Cu+2].c1ccc(Cc2ccncc2)cc1.c1ccc(Cc2ccncc2)cc1 [SAS-4, Cu2(SAS)4(4-Benzyl-Pyridine)2] | – | 1.336 | 0.0153(3) mg/ml | 0.3314(22) mg/ml | 0.0134(3) mg/ml | – | – | – | – | – |
| Cu2(CH3COO)4(H2O)2 [MC-1, reference compound] | −2.222(553) | −2.807 | – | 0.1161(438) mg/ml | – | 72^a mg/ml | – | – | – | – |
| CC(=O)Oc1ccccc1C(=O)[O-].CC(=O)Oc1ccccc1C(=O)[O-].NC(=O)c1ccncc1.NC(=O)c1ccncc1.[Cu+2] [ASP-7, Cu(ASP)2(Isonicotinamide)2] | −0.4723(272) | −0.5333 | 5.654(20) mg/ml | 1.673(9) mg/ml | 9.259(5) mg/ml | – | – | – | – | – |
| Clc1cccnc1.Clc1cccnc1.O=C(Oc1ccccc1C(=O)[O-])c1ccccc1O.O=C(Oc1ccccc1C(=O)[O-])c1ccccc1O.O=C(Oc1ccccc1C(=O)[O-])c1ccccc1O.O=C(Oc1ccccc1C(=O)[O-])c1ccccc1O.[Cu+2].[Cu+2] [SAS-3, Cu2(SAS)4(3-Cl-Pyridine)2] | – | 0.7472 | 0.1259(4) mg/ml | 0.7034(61) mg/ml | 0.1239(1) mg/ml | – | – | – | – | – |
| Cu(ASP)2(Isonicotinamide)2(AcCN)2 [ASP-6] | −0.4647(274) | −0.4980 | 5.767(7) mg/ml | 1.832(17) mg/ml | 9.315(10) mg/ml | – | – | – | – | – |
| CC(=O)Oc1ccccc1C(=O)[O-].CC(=O)Oc1ccccc1C(=O)[O-].[Cu+2].c1ccc(-c2cccnc2)cc1.c1ccc(-c2cccnc2)cc1 [ASP-9, Cu(ASP)2(3-Phenyl-Pyridine)2] | – | 0.4495 | 0.4085(17) mg/ml | 1.150(20) mg/ml | 0.5415(7) mg/ml | – | – | – | – | – |
| CC(=O)[O-].CC(=O)[O-].COc1cccc(OC)c1C(=O)[O-].COc1cccc(OC)c1C(=O)[O-].O.O.[Cu+2].[Cu+2] [MC-2, Cu2(CH3COO)2(DMB)2(H2O)2] | −1.496(15) | −1.428 | 15.64(14) mg/ml | 0.5841(103) mg/ml | 15.82(11) mg/ml | – | – | – | – | – |
| CC(=O)Oc1ccccc1C(=O)[O-].CC(=O)Oc1ccccc1C(=O)[O-].CC(=O)Oc1ccccc1C(=O)[O-].CC(=O)Oc1ccccc1C(=O)[O-].CN(C)C=O.CN(C)C=O.[Cu+2].[Cu+2] [ASP-2, Cu2(ASP)4(DMF)2] | −0.3484(166) | −0.4873 | 4.493(4) mg/ml | 1.463(26) mg/ml | 3.092(33) mg/ml | – | – | – | – | – |
| CC(=O)Oc1ccccc1C(=O)O [Aspirin(ASP), acetylsalicylic acid, reference compound] | – | 1.101 | – | 54.16(94) mg/ml | – | – | 4.600^b mg/ml | 1.32 | 4300 (≈ 23.8 mM) | – |
| CC(=O)Oc1ccccc1C(=O)[O-].CC(=O)Oc1ccccc1C(=O)[O-].[Cu+2].c1ccncc1.c1ccncc1 [ASP-5, Cu(ASP)2(Pyridine)2] | – | −0.4770 | 3.629(24) mg/ml | 1.210(47) mg/ml | 3.425(21) mg/ml | – | – | – | – | – |
| Brc1cccnc1.Brc1cccnc1.CC(=O)Oc1ccccc1C(=O)[O-].CC(=O)Oc1ccccc1C(=O)[O-].CC(=O)Oc1ccccc1C(=O)[O-].CC(=O)Oc1ccccc1C(=O)[O-].[Cu+2].[Cu+2] [ASP-3, Cu2(ASP)4(3-Br-Py)2] | 0.1066(58) | −0.09583 | 1.566(5) mg/ml | 1.256(15) mg/ml | 1.564(3) mg/ml | – | – | – | – | 3.819×10^−9 m^2/s |
| O=C(Oc1ccccc1C(=O)[O-])c1ccccc1O.O=C(Oc1ccccc1C(=O)[O-])c1ccccc1O.[Cu+2].c1ccncc1.c1ccncc1.c1ccncc1 [SAS-6, Cu(SAS)2(Pyridine)3] | – | 0.7655 | 0.3291(8) mg/ml | 1.918(5) mg/ml | 0.4065(8) mg/ml | – | – | – | – | – |
